Data taken from patent publication US20020040139A1, “INTRANASAL FORMULATIONS FOR TREATING SEXUAL DISORDERS” (priority 1998, published 2002).
Where a name gives a salt, the structure may show the parent alone.

Assays:
[1] = Aqueous solubility of sildenafil mesylate; assay type: physicochemical; conditions: no solubility enhancing agent
Description: Preferred as solubility enhancing agents are caffeine (preferably at a concentration of from 1.0 to 2.5% weight/vol); nicotinamide (preferably 3.0 to 20.0% weight/vol); vanillin (preferably 0.5 to 2.5% weight/vol); and benzyl alcohol (preferably 0.5 to 2.5% weight/vol). A combination of nicotinamide and vanillin is also preferred. By using such solubility enhancing agents, it is possible to increase the solubility of sildenafil mesylate in water from approximately 60 mg/ml to in excess of 100 mg/ml. This allows a more concentrated solution to be administered facilitating a rapid onset of action and reducing irritancy. One particular and preferred formulation comprises sildenafil mesylate 100 mg/ml and caffeine 15 mg/ml in a buffered aqueous solution. The pH of the solution is preferably adjusted to pH 3-5, preferably to pH 4.2 by the addition of a base e.g. sodium hydroxide.

[2] = Plasma levels in dogs after intranasal versus oral dosing; assay type: in vivo
Description: The effectiveness of the intranasal formulations of the present invention were evaluated in dogs. Four fasted dogs were lightly anaesthetised, each received 5 mg of the cGMP-PDE5 inhibitor in both nostrils. The drug was administered both as a powder and as a solution. Plasma levels of the active agent were measured and compared with plasma levels obtained when the dogs were previously orally dosed with the agent.
Thus a solution dose of 0.7 mg/kg of sildenafil mesylate administered by the intranasal route to four dogs gave a mean peak blood plasma levels of 407 ng/ml after a period of 5 minutes.

[3] = Plasma levels in human volunteers after intranasal administration; assay type: in vivo; conditions: man
[4] = four dogs, intranasal route, solution dose 0.7 mg/kg

Row | Molecule | solubility in water [1] | blood plasma levels after intranasal versus oral administration ([2]; dogs, intranasal powder and solution, 5 mg in both nostrils, compared with oral dosing) | mean peak blood plasma level [2, 4] | time of mean peak blood plasma level [2, 4] | blood plasma levels of sildenafil versus oral dosing [3] | time of peak blood plasma levels after administration [3] | mean peak blood plasma level ([2]; dog, in vivo, po, 1.4 mg/kg) | time of mean peak blood plasma level ([2]; dog, in vivo, po, 1.4 mg/kg)
1 | 5-[2-ethoxy-5-(4-methylpiperazin-1-ylsulphonyl)phenyl]-1,6-dihydro-1-methyl-3-propylpyrazolo[4,3-d]pyrimidin-7-one)methanesulphonate salt [sildenafil mesylate] | approximately 60 mg/ml | particularly effective | 407 ng/mL | 5 min | comparable with oral dosing | 5 to 15 min |  | 
2 | CCCc1nn(C)c2c(=O)[nH]c(-c3cc(S(=O)(=O)N4CCN(C)CC4)ccc3OCC)nc12 [sildenafil citrate, reference compound] |  |  |  |  |  |  | 204 ng/mL | 136 min
